# Measurements: US20130142819A1, “LEISHMANICIDAL FORMULATION AND ITS USE” (priority 2010, published 2013)
# Tests used:
# Test in all cases: Leishmanicidal activity, MTT viability assay, promastigotes
# Assay type in all cases: cell-based
# Details in all cases: 50 μg/mL; average ± standard deviation
# [1] = tested on: stationary phase promastigotes of L. chagasi
# Experimental: (§1) In a cell culture plate of 96 wells (Nunc, Nunclon®), 4×10^5 promastigote and amastigote-like forms of species Leishmania amazonensis, L. major and L. chagasi were incubated with 25 to 200 μg/mL of the aqueous extract of the fungus in RPMI-PR medium for a final volume of 100 μL, for 24 h at 25° C. Then it was added 50 uL of MTT reagent (Thiazoly Blue Tetrazolium Bromide 98%; in stock concentration of 5 mg/mL) and the plate was incubated for 4 hours at 25° C. The cells were analyzed on a microscope to verify the formation of formazan crystals. Shortly after it was added 60 μL of a SDS 10%/HCL 0.1 M solution to solubilize formazan crystals and the plate was incubated for 18 h. The absorbance readings were then performed using a spectrophotometer at a wavelength of 570 nanometers (nm) (see FIGS. 1 and 2; Table 1 and 2).
# (§2) Through the absorbance readings collected in experiments, Tables 1 and 2 were generated to represent the percentage of leishmanicidal activity of aqueous extract against the three Leishmania species tested in two manners. The calculation of the percentage of death of the parasites was based in the formula below, using the absorbance readings: […]
# (§3) The experiment was conducted by the cellular viability protocol by impregnating the MTT reagent and the concentration of 50 μg/mL of the aqueous extract of the fungus and the purified fractions were used. […]
# [2] = tested on: stationary phase promastigotes of L. major
# Experimental: as §1, §2, §3
# [3] = tested on: stationary phase promastigotes of L. amazonensis
# Experimental: as §1, §2, §3
smiles,measurement,setting,value
"C[C@@H]1[C@H](O)[C@@H](C)/C=C/C=C/C=C/C=C/C=C/C=C/C=C/[C@H](O[C@@H]2O[C@H](C)[C@@H](O)[C@H](N)[C@@H]2O)C[C@@H]2O[C@](O)(C[C@@H](O)C[C@@H](O)[C@H](O)CC[C@@H](O)C[C@@H](O)CC(=O)O[C@H]1C)C[C@H](O)[C@H]2C(=O)O [Amphotericin B, amphotericin B]","Average percentage of death of stationary phase promastigote forms, L. chagasi",[1],35.12 ± 2.61%
same,"Average percentage of death of stationary phase promastigote forms, L. major",[2],42.51 ± 2.00%
same,"Average percentage of death of stationary phase promastigote forms, L. amazonensis",[3],40.06 ± 1.17%
